The values that follow come from patent EP1048652A1, “AROMATIC COMPOUNDS HAVING CYCLIC AMINO OR SALTS THEREOF” (MOCHIDA PHARMACEUTICAL CO., LTD., priority 1997, dated 1999).

Broadly, the IC50 is the concentration needed to halve the response being measured.

T1 sequence (P00742 235-488 limits assumed): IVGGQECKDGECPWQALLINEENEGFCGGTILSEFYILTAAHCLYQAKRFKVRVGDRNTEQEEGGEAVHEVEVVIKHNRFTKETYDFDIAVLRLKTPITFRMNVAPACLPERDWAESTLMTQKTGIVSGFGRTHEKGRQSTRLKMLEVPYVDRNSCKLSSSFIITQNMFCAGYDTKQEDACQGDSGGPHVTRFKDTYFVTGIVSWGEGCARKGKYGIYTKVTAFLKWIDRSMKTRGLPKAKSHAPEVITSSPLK
T1 sequence (P00742 41-179 partner limits assumed): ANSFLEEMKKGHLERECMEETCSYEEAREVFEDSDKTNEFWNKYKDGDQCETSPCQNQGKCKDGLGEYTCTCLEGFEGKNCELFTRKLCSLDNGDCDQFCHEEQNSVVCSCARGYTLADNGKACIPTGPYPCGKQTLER

The first assay concerns the target T1, Human FXa (Homo sapiens, UniProt P00742).
T1 construct: purchased Enzyme Research Laboratories, Inc
Kind of assay: Measuring human FXa inhibitory action (chromogenic substrate S-2222). The format is biochemical. To be noted: Human FXa 0.019 U/ml, S-2222 0.4 mM, Tris-HCl buffer (pH 7.5), 37 °C, absorbance at 405 nm. How it is done:
The outstanding FXa inhibitory activity of the compounds of the present invention can be verified by the following tests. 1) Measurement of Enzyme Inhibitory Action a) Measuring human FXa inhibitory action In vitro FXa inhibitory activity is measured in accordance with the method of Kettner et al., J. Biol. Chem., 1990, 265, 18289-18297. Human FXa (Enzyme Research Laboratories, Inc., 0.019 U/ml) is mixed with a test compound diluted with dimethyl sulfoxide (DMSO) at various concentrations and a synthesis substrate S-2222 (Chromogenix AB, 0.4 mM) and incubated in a Tris-HCl buffer (pH 7.5) at 37 °C while the absorbance at 405 nm is measured continuously. To calculate the FXa inhibitory activity of the test cmpound, the initial reaction velocity is compared with the value for a control containing no test compound. The FXa inhibitory activity of a test compound is usually expressed as IC50. The compounds of the present invention were measured for their FXa inhibitory activity by the above-described method and they had potencies between 1 nM and 1µm in terms of IC50. […]
`CN(C)CC1CN(S(=O)(=O)c2ccc3cc(Cl)ccc3c2)CC(=O)N1CC1CCN(c2ccncc2)CC1` (stereo not drawn) [Example 54, 4-(6-chloronaphthalen-2-ylsulfonyl)-6-dimethylaminomethyl-1-[1-(4-pyridyl)piperidin-4-ylmethyl]piperazin-2-one] displayed an IC50 of 8.5 nM.

In turn, `CCOC(=O)C1CN(S(=O)(=O)c2ccc3cc(Cl)ccc3c2)CC(=O)N1CC1CCN(c2ccncc2)CC1` (stereo not drawn) [Example 39, 4-(6-chloronaphthalen-2-ylsulfonyl)-6-ethoxycarbonyl-1-[1-(4-pyridyl)piperidin-4-ylmethyl]piperazin-2-one] came in with an IC50 of 19 nM. This IC50 lies about 2.2-fold higher than the previous one.

In turn, `CCOC(=O)[C@H]1CN(S(=O)(=O)c2ccc3cc(Cl)ccc3c2)CC(=O)N1CC1CCN(c2ccncc2)CC1` [Example 60, (R)-4-(6-chloronaphthalen-2-ylsulfonyl)-6-ethoxycarbonyl-1-[1-(4-pyridyl)piperidin-4-ylmethyl]piperazin-2-one] yielded an IC50 of 16 nM.

Consider `NC(=O)C1CN(S(=O)(=O)c2ccc3cc(Cl)ccc3c2)CC(=O)N1CC1CCN(c2ccncc2)CC1` (stereo not drawn) [Example 46], for which 17 nM corresponded to half-maximal inhibition (IC50).

As for `O=C(O)C1CN(S(=O)(=O)c2ccc3cc(Cl)ccc3c2)CC(=O)N1CC1CCN(c2ccncc2)CC1` (stereo not drawn) [Example 40, 6-carboxy-4-(6-chloronaphthalen-2-ylsulfonyl)-1-[1-(4-pyridyl)piperidin-4-ylmethyl]piperazin-2-one], the IC50 was determined as 7.4 nM.

Take `CCOC(=O)[C@@H]1CN(S(=O)(=O)c2ccc3cc(Cl)ccc3c2)CC(=O)N1CC1CCN(c2ccncc2)CC1` [Example 61, (S)-4-(6-chloronaphthalen-2-ylsulfonyl)-6-ethoxycarbonyl-1-[1-(4-pyridyl)piperidin-4-ylmethyl]piperazin-2-one]: the IC50 was 70 nM.

Consider `O=C(C1CCN(c2ccncc2)CC1)N1CCN(S(=O)(=O)/C=C/c2ccc(Cl)cc2)CC1` [Control, 1-((E)-4-chlorostyrylsulfonyl)-4-[1-(4-pyridyl)piperidin-4-ylcarbonyl]piperazine, reference compound], for which the IC50 worked out at 150 nM.

`NCC1CN(S(=O)(=O)c2ccc3cc(Cl)ccc3c2)CC(=O)N1CC1CCN(c2ccncc2)CC1` (stereo not drawn) [Example 52, 6-aminomethyl-4-(6-chloronaphthalen-2-ylsulfonyl)-1-[1-(4-pyridyl)piperidin-4-ylmethyl]piperazin-2-one] displayed a concentration for half-maximal inhibition (IC50) of 12 nM.

As for `CC(=O)NCC1CN(S(=O)(=O)c2ccc3cc(Cl)ccc3c2)CC(=O)N1CC1CCN(c2ccncc2)CC1` (stereo not drawn) [Example 55, 6-acetamidomethyl-4-(6-chloronaphthalen-2-ylsulfonyl)-1-[1-(4-pyridyl)piperidin-4-ylmethyl]piperazin-2-one], the IC50 worked out at 7.4 nM.

Molecule `O=C1CN(S(=O)(=O)c2ccc3cc(Cl)ccc3c2)CC(C=NO)N1CC1CCN(c2ccncc2)CC1` (stereo not drawn) [Example 47, 6-aldoximyl-4-(6-chloronaphthalen-2-ylsulfonyl)-1-[1-(4-pyridyl)piperidin-4-ylmethyl]piperazin-2-one] gave a half-inhibitory concentration (IC50) of 13 nM.

Another assay relates to rat plasma. Put plainly: Measuring extrinsic coagulation time (PT) in vitro in rat plasma. Conditions: 37°C 3 minutes, thromboplastin reagent, concentration required to double the coagulation time. How it is done: The compounds synthesized in the Examples of the present invention had FXa inhibitory activities at least equal to that of the control compound. 2) Measurement of Anticoagulation Activity (in vitro) a) Measuring extrinsic coagulation time Thromboplastin time (PT) is measured in the presence of test compounds diluted at various concentrations. A test compound diluted with DMSO at various concentrations is mixed with rat plasma and incubated at 37°C for 3 minutes. Then, a thromboplastin reagent is added and the coagulation time is measured. The anticoagulation activity of the test compound is indicated in terms of the concentration required to double the coagulation time for the case where no test compound is added. […]
Turning to `CCOC(=O)C1CN(S(=O)(=O)c2ccc3cc(Cl)ccc3c2)CC(=O)N1CC1CCN(c2ccncc2)CC1` (stereo not drawn) [Example 39, 4-(6-chloronaphthalen-2-ylsulfonyl)-6-ethoxycarbonyl-1-[1-(4-pyridyl)piperidin-4-ylmethyl]piperazin-2-one], the “PT Doubling Concentration” value was found to be 2.8 µM.

`O=C(O)C1CN(S(=O)(=O)c2ccc3cc(Cl)ccc3c2)CC(=O)N1CC1CCN(c2ccncc2)CC1` (stereo not drawn) [Example 40, 6-carboxy-4-(6-chloronaphthalen-2-ylsulfonyl)-1-[1-(4-pyridyl)piperidin-4-ylmethyl]piperazin-2-one]: the “PT Doubling Concentration” value stood at 2.7 µM.
